Measurements: patent US9920032B2, “Heterocyclic compounds useful as pim kinase inhibitors” (Incyte Corporation, priority 2015, dated 2018)
pIC50: −log10 of the molar value.

Tests used:
Format in all cases: biochemical
Pim-1 = Pim-1 (Homo sapiens (Human), UniProt P11309); experiment: Pim-1 kinase assay; details: 1 mM ATP; read-out: PIM1 IC50
Description: (§1) Pim-1 and Pim-3 kinase assays—20 μL reactions were run in white 384 well polystyrene plates dotted with 0.8 μL compound/DMSO in the assay buffer (50 mM Tris, pH 7.5, 0.01% Tween-20, 5 mM mgCl2, 0.01% BSA, 5 mM DTT), containing 0.05 μM Biotin-labeled BAD peptide substrate (AnaSpec 62269), 1 mM ATP, and 2.5 pM (Pim-1, Invitrogen PV3503) or 1.25 pM (Pim-3, Millipore 14-738) enzyme for 1 h at 25° C. Reactions were stopped by addition of 10 μL STOP Buffer (150 mM Tris, pH=7.5, 150 mM NaCl, 75 mM EDTA, 0.01% Tween-20, 0.3% BSA,) supplemented with Phospho-Bad (Ser112) Antibody (Cell Signaling 9291) diluted 666-fold, and Streptavidin donor beads (PerkinElmer 6760002) along with Protein-A acceptor beads (PerkinElmer 6760137) at […]. Supplementation of the STOP buffer with beads and stopping the reactions were done under reduced light. Prior to the stopping reactions STOP buffer with beads was preincubated for 1 h in the dark at room temperature. After stopping the reactions, plates were incubated for 1 h in the dark at room temperature before reading on a PHERAstar FS plate reader (BMG Labtech) under reduced light.

Pim-2 = Pim-2 (Homo sapiens (Human), UniProt Q9P1W9); experiment: Pim-2 kinase assay; details: 1 mM ATP; read-out: PIM2 IC50
Description: Pim-2 kinase assay—20 μL reactions were run in white 384 well polystyrene plates dotted with 0.8 μL compound/DMSO in the assay buffer (50 mM Tris, pH 7.5, 0.01% Tween-20, 5 mM mgCl2, 0.01% BSA, 5 mM DTT), containing 0.05 μM Fluorescein-labeled CREBtide peptide substrate (Invitrogen PV3508), 1 mM ATP, and 1 nM enzyme (Invitrogen PV3649) for 2 h at 25° C. Reactions were stopped by addition of 10 μL TR-FRET Dilution Buffer (Invitrogen PV3574) with 30 mM EDTA and 1.5 nM LanthaScreen Tb-CREB pSer133 antibody (Invitrogen PV3566). After 30 min. incubation at room temperature, plates were read on a PHERAstar FS plate reader (BMG Labtech).

Pim-3 = Pim-3 (Homo sapiens (Human), UniProt Q86V86); experiment: Pim-3 kinase assay; details: 1 mM ATP; read-out: PIM3 IC50
Description: as §1

Pim-1, sequence (P11309 whole entry): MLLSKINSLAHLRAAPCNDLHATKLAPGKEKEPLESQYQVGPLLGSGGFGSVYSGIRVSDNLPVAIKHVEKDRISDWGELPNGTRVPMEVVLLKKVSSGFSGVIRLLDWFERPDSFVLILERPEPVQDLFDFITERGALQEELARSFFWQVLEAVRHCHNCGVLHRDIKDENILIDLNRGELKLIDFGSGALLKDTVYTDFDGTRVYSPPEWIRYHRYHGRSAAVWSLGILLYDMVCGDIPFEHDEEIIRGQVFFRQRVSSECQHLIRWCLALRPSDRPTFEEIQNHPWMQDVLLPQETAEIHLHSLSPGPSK
Pim-2, sequence (Q9P1W9 whole entry): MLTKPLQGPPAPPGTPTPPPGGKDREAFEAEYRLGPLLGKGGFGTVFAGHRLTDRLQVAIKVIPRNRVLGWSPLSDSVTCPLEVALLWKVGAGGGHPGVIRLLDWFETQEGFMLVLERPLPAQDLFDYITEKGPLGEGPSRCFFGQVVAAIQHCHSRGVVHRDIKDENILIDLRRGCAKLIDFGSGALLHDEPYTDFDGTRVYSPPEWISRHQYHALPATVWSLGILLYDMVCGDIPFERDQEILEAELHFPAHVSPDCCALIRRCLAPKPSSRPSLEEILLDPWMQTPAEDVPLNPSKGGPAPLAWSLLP

| Structure (SMILES) | pIC50 (Pim-1) | pIC50 (Pim-2) | pIC50 (Pim-3) |
| --- | --- | --- | --- |
| COC1CCCN(c2cnc3c(C(=O)Nc4cnccc4[C@@H]4C[C@H](C)C[C@H](N)C4)ccc(F)c3c2)C1 (stereo in doubt) [Example 12, N-{4-[(1R,3S,5S)-3-Amino-5-methylcyclohexyl]pyridin-3-yl}-5-fluoro-3-[(3S)-3-methoxypiperidin-1-yl]quinoline-8-carboxamide] | ≥ 8.00 | 6.00 to 7.00 | ≥ 8.00 |
| CCc1cnc2c(C(=O)Nc3cnccc3[C@@H]3C[C@H](C)C[C@H](N)C3)ccc(F)c2c1 [Example 1, N-{4-[(1R,3S,5S)-3-Amino-5-methylcyclohexyl]pyridin-3-yl}-3-ethyl-5-fluoroquinoline-8-carboxamide] | ≥ 8.00 | 6.00 to 7.00 | ≥ 8.00 |
| C[C@@H]1C[C@H](N)C[C@H](c2ccncc2NC(=O)c2ccc(F)c3cc(N4CCC[C@@H](F)C4)cnc23)C1 [Example 2, N-{4-[(1R,3S,5S)-3-Amino-5-methylcyclohexyl]pyridin-3-yl}-5-fluoro-3-[(3,R)-3-fluoropiperidin-1-yl]quinoline-8-carboxamide] | ≥ 8.00 | ≥ 7.00 | ≥ 8.00 |
| C[C@@H]1C[C@H](N)C[C@H](c2ccncc2NC(=O)c2ccc(F)c3cc(N4CCCC4)cnc23)C1 [Example 3, N-{4-[(1R,3S,5S)-3-Amino-5-methylcyclohexyl]pyridin-3-yl}-5-fluoro-3-pyrrolidin-1-ylquinoline-8-carboxamide] | ≥ 8.00 | 6.00 to 7.00 | 7.30 to 8.00 |
| C[C@@H]1C[C@H](N)C[C@H](c2ccncc2NC(=O)c2ccc(F)c3cc(N4CCC4)cnc23)C1 [Example 4, N-{4-[(1R,3S,5S)-3-Amino-5-methylcyclohexyl]pyridin-3-yl}-3-azetidin-1-yl-5-fluoroquinoline-8-carboxamide] | ≥ 8.00 | 6.00 to 7.00 | 7.30 to 8.00 |
| C[C@@H]1C[C@H](N)C[C@H](c2ccncc2NC(=O)c2ccc(F)c3cc(N4CC[C@H](F)C4)cnc23)C1 [Example 5, N-{4-[(1R,3S,5S)-3-Amino-5-methylcyclohexyl]pyridin-3-yl}-5-fluoro-3-[(3S)-3-fluoropyrrolidin-1-yl]quinoline-8-carboxamide] | ≥ 8.00 | ≥ 7.00 | ≥ 8.00 |
| C[C@@H]1C[C@H](N)C[C@H](c2ccncc2NC(=O)c2ccc(F)c3cc(N4CC[C@@H](F)C4)cnc23)C1 [Example 6, N-{4-[(1R,3S,5S)-3-Amino-5-methylcyclohexyl]pyridin-3-yl}-5-fluoro-3-[(3R)-3-fluoropyrrolidin-1-yl]quinoline-8-carboxamide] | ≥ 8.00 | ≥ 7.00 | ≥ 8.00 |
| C[C@@H]1C[C@H](N)C[C@H](c2ccncc2NC(=O)c2ccc(F)c3cc(N4CC[C@H](C#N)C4)cnc23)C1 [Example 7, N-{4-[(1R,3S,5S)-3-Amino-5-methylcyclohexyl]pyridin-3-yl}-3-[(3S)-3-cyanopyrrolidin-1-yl]-5-fluoroquinoline-8-carboxamide] | ≥ 8.00 | ≥ 7.00 | ≥ 8.00 |
| C[C@@H]1C[C@H](N)C[C@H](c2ccncc2NC(=O)c2ccc(F)c3cc(N4CC[C@@H](C#N)C4)cnc23)C1 [Example 8, N-{4-[(1R,3S,5S)-3-Amino-5-methylcyclohexyl]pyridin-3-yl}-3-[(3R)-3-cyanopyrrolidin-1-yl]-5-fluoroquinoline-8-carboxamide] | ≥ 8.00 | ≥ 7.00 | ≥ 8.00 |
| C[C@@H]1C[C@H](N)C[C@H](c2ccncc2NC(=O)c2ccc(F)c3cc(N4CC(F)C4)cnc23)C1 [Example 9, N-{4-[(1R,3S,5S)-3-Amino-5-methylcyclohexyl]pyridin-3-yl}-5-fluoro-3-(3-fluoroazetidin-1-yl)quinoline-8-carboxamide] | ≥ 8.00 | 6.00 to 7.00 | ≥ 8.00 |
| C[C@@H]1C[C@H](N)C[C@H](c2ccncc2NC(=O)c2ccc(F)c3cc(N4CCOCC4)cnc23)C1 [Example 10, N-{4-[(1R,3S,5S)-3-Amino-5-methylcyclohexyl]pyridin-3-yl}-5-fluoro-3-morpholin-4-ylquinoline-8-carboxamide] | ≥ 8.00 | 6.00 to 7.00 | ≥ 8.00 |
| CO[C@H]1CCCN(c2cnc3c(C(=O)Nc4cnccc4[C@@H]4C[C@H](C)C[C@H](N)C4)ccc(F)c3c2)C1 [Example 11, N-{4-[(1R,3S,5S)-3-Amino-5-methylcyclohexyl]pyridin-3-yl}-5-fluoro-3-[(38)-3-methoxypiperidin-1-yl]quinoline-8-carboxamide] | ≥ 8.00 | 6.00 to 7.00 | ≥ 8.00 |
| C[C@@H]1C[C@H](N)C[C@H](c2ccncc2NC(=O)c2ccc(F)c3cc(C4CC4)cnc23)C1 [Example 13, N-{4-[(1R,3S,5S)-3-Amino-5-methylcyclohexyl]pyridin-3-yl}-3-cyclopropyl-5-fluoroquinoline-8-carboxamide] | ≥ 8.00 | ≥ 7.00 | ≥ 8.00 |
| C[C@@H]1C[C@H](N)C[C@H](c2ccncc2NC(=O)c2ccc(F)c3cc(C#CC4CC4)cnc23)C1 [Example 14, N-{4-[(1R,3S,5S)-3-Amino-5-methylcyclohexyl]pyridin-3-yl}-3-(cyclopropylethynyl)-5-fluoroquinoline-8-carboxamide] | ≥ 8.00 | 6.00 to 7.00 | ≥ 8.00 |
| C[C@@H]1C[C@H](N)C[C@H](c2ccncc2NC(=O)c2ccc(F)c3cc(-c4c(F)cccc4C#N)cnc23)C1 [Example 15, N-{4-[(1R,3S,5S)-3-Amino-5-methylcyclohexyl]pyridin-3-yl}-3-(2-cyano-6-fluorophenyl)-5-fluoroquinoline-8-carboxamide] | ≥ 8.00 | ≥ 7.00 | ≥ 8.00 |
| C[C@@H]1C[C@H](N)C[C@H](c2ccncc2NC(=O)c2ccc(F)c3cc(-c4ccccc4C#N)cnc23)C1 [Example 17, N-{4-[(1R,3S,5S)-3-Amino-5-methylcyclohexyl]pyridin-3-yl}-3-(2-cyanophenyl)-5-fluoroquinoline-8-carboxamide] | ≥ 8.00 | 6.00 to 7.00 | ≥ 8.00 |
| C[C@@H]1C[C@H](N)C[C@H](c2ccncc2NC(=O)c2ccc(F)c3cc(-c4c(F)cc(O)cc4F)cnc23)C1 [Example 18, N-{4-[(1R,3S,5S)-3-Amino-5-methylcyclohexyl]pyridin-3-yl}-3-(2,6-difluoro-4-hydroxyphenyl)-5-fluoroquinoline-8-carboxamide] | ≥ 8.00 | ≥ 7.00 | ≥ 8.00 |
| C[C@@H]1C[C@H](N)C[C@H](c2ccncc2NC(=O)c2ccc(F)c3cc(N(C)CC4CC4)cnc23)C1 [Example 19, N-{4-[(1R,3S,5S)-3-Amino-5-methylcyclohexyl]pyridin-3-yl}-3-[(cyclopropylmethyl)(methyl)amino]-5-fluoroquinoline-8-carboxamide] | ≥ 8.00 | 6.00 to 7.00 | ≥ 8.00 |
| CCN(C)c1cnc2c(C(=O)Nc3cnccc3[C@@H]3C[C@H](C)C[C@H](N)C3)ccc(F)c2c1 [Example 20, N-(4-((1R,3S,5S)-3-Amino-5-methylcyclohexyl)pyridin-3-yl)-3-(ethyl(methyl)amino)-5-fluoroquinoline-8-carboxamide] | ≥ 8.00 | ≥ 7.00 | ≥ 8.00 |
| C[C@@H]1C[C@H](N)C[C@H](c2ccncc2NC(=O)c2ccc(F)c3cc(N(C)CC(F)(F)F)cnc23)C1 [Example 21, N-{4-[(1R,3S,5S)-3-Amino-5-methylcyclohexyl]pyridin-3-yl}-5-fluoro-3-[methyl(2,2,2-trifluoroethyl)amino]quinoline-8-carboxamide] | ≥ 8.00 | ≥ 7.00 | ≥ 8.00 |
| C[C@@H]1C[C@H](N)C[C@H](c2ccncc2NC(=O)c2ccc(F)c3cc(N(C)CCF)cnc23)C1 [Example 22, N-{4-[(1R,3S,5S)-3-Amino-5-methylcyclohexyl]pyridin-3-yl}-5-fluoro-3-[(2-fluoroethyl)(methyl)amino]quinoline-8-carboxamide] | ≥ 8.00 | ≥ 7.00 | ≥ 8.00 |
| C[C@@H]1C[C@H](N)C[C@H](c2ccncc2NC(=O)c2ccc(F)c3cc(N(C)C4CCOC4)cnc23)C1 (stereo partly drawn) [Example 23, N-{4-[(1R,3S,5S)-3-Amino-5-methylcyclohexyl]pyridin-3-yl}-5-fluoro-3-[methyl(tetrahydrofuran-3-yl)amino]quinoline-8-carboxamide] | ≥ 8.00 | 6.00 to 7.00 | ≥ 8.00 |
